Source: paper PMC6753678, “Fueling Open Innovation for Malaria Transmission-Blocking Drugs: Hundreds of Molecules Targeting Early Parasite Mosquito Stages” (Frontiers in Microbiology, 2019)

Experiments:
[1] = system: P. falciparum late stage (stages IV-V) gametocytes; assay: P. falciparum late stage gametocyte ATP depletion assay (Pf GC-ATP); conditions: 1: YES; 0: NO; >10-fold selectivity over cytotoxicity
[2] = system: P. falciparum late stage (stages IV-V) gametocytes; design: method as in Almela et al 2016; conditions: P. falciparum late stage gametocyte ATP assay, TCAMS screen; ref Almela et al 2016; read-out: Pf GCT ATP IC50; cited from earlier work
HepG2 cells = assay: HepG2 cytotoxicity assay; conditions: HepG2 cytotoxicity unified across screens; >25 set to 25.00
How it was run: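 Here viability after a 48 h compound incubation (37°C, humidified 5% CO2) is measured by fluorescence and expressed as percent inhibition, with doxorubicin at 50 μM and DMSO as the bounding controls.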

SMILES	Is compound selective in assay? Pf GC-ATP active? [1]	IC50 [2]	Unified cytotox (HepG2 cells)
CCN(CC)CCOc1ccc(C(O)(C#CC(O)(c2ccc(OCCN(CC)CC)cc2)c2ccc([N+](=O)[O-])cc2)c2ccc([N+](=O)[O-])cc2)cc1 (stereo not drawn) [TCMDC-137201]	1 (1: YES)	220 nM	6.20 µM
CCc1cc(COc2ccc(CNCCC(C)C)cc2I)c(OCc2ccccc2)c(COc2ccc(CNCCC(C)C)cc2I)c1.Cl [TCMDC-137255]	0 (0: NO)	1020 nM	5.80 µM
CC(C)CCNCc1ccc(OCc2cccc(COc3ccc(CNCCC(C)C)cc3I)c2)c(I)c1.Cl [TCMDC-137274]	1 (1: YES)	370 nM	5.30 µM
Cl.N=C(NCCCc1ccccc1)c1cccc(C(=N)NCCCc2ccccc2)n1 [TCMDC-137453]	1 (1: YES)	310 nM	12.80 µM
COc1cc(CCNC(=N)/C=C/c2ccc(Cl)cc2)ccc1Cl.Cl [TCMDC-137457]	1 (1: YES)	280 nM	14.00 µM
CCCCN(CCCC)CCCCNc1c2ccccc2nc2ccccc12.Cl [TCMDC-137461]	1 (1: YES)	550 nM	19.00 µM
COc1ccc2nc3cc(Cl)ccc3c(NCCN3CCN(C)CC3)c2c1 [TCMDC-137476]	1 (1: YES)	1880 nM	19.33 µM
CN1CCN(CCCCNc2c3ccccc3nc3ccccc23)CC1 [TCMDC-137479]	0 (0: NO)	1320 nM	3.39 µM
Br.C=CCNC(CCCCC)c1ccc(OCCOc2ccc(C(CCCCC)NCC=C)cc2)cc1 (stereo not drawn) [TCMDC-137483]	0 (0: NO)	910 nM	5.80 µM
CCCCN1CCN(CCCCNc2c3ccccc3nc3ccccc23)CC1.Cl [TCMDC-137569]	1 (1: YES)	1190 nM	12.68 µM
COc1ccc2nc3cc(Cl)ccc3c(NCCCCN3CCNCC3)c2c1.Cl [TCMDC-137578]	0 (0: NO)	660 nM	5.00 µM
Br.CCCCC(NCC)c1ccc(OCCOc2ccc(C(CCCC)NCC)cc2)cc1 (stereo not drawn) [TCMDC-137612]	1 (1: YES)	420 nM	6.10 µM
CCCCCCNC(=N)c1ccc(OCCCCCOc2ccc(C(=N)NCCCCCC)cc2)cc1.Cl [TCMDC-137619]	1 (1: YES)	310 nM	5.39 µM
CCCCCCC(N)c1ccc(OCCCOc2ccc(C(N)CCCCCC)cc2)cc1.Cl (stereo not drawn) [TCMDC-137621]	1 (1: YES)	53.3 nM	1.90 µM
CCCCCOc1ccc(C(=NC)N(CCCCC)CCCCC)c2ccccc12.I [TCMDC-137703]	0 (0: NO)	890 nM	6.30 µM
CCOc1ccc2ccccc2c1CNCCCCCCNCc1c(OCC)ccc2ccccc12.CS(=O)(=O)O [TCMDC-137791]	0 (0: NO)	700 nM	1.75 µM
Br.c1cc(C2=NC3CCCCC3N2)ccc1OCCCCCOc1ccc(C2=NC3CCCCC3N2)cc1 (stereo not drawn) [TCMDC-137802]	1 (1: YES)	280 nM	3.74 µM
COc1ccc2c(c1CNCCCCCCNCc1c(OC)ccc3c1CCCC3)CCCC2 [TCMDC-137817]	0 (0: NO)	420 nM	3.83 µM
COc1cc2ccccc2c(OC)c1CNCCCCCCNCc1c(OC)cc2ccccc2c1OC.CS(=O)(=O)O [TCMDC-137843]	1 (1: YES)	320 nM	4.25 µM

SMILES	Is compound selective in assay? Pf GC-ATP active? [1]	IC50 [2]	Unified cytotox (HepG2 cells)
CN(CCCNCc1cccc2ccccc12)CCCNCc1cccc2ccccc12.Cl [TCMDC-137905]	1 (1: YES)	230 nM	5.72 µM
COCCCNC(=S)NN=C(C)c1ccccn1 [TCMDC-137907]	1 (1: YES)	160 nM	17.00 µM
Cl.c1ccc2c(CNCCCN3CCN(CCCNCc4c5ccccc5cc5ccccc45)CC3)c3ccccc3cc2c1 [TCMDC-137909]	1 (1: YES)	110 nM	6.28 µM
Cl.c1ccc2c(NCCCCCCNc3ccnc4ccccc34)ccnc2c1 [TCMDC-137913]	1 (1: YES)	960 nM	16.40 µM
Cl.c1ccc2c(c1)cc(CNCCCN1CCN(CCCNCc3cc4ccccc4c4ccccc34)CC1)c1ccccc12 [TCMDC-137914]	1 (1: YES)	1110 nM	13.70 µM
Cl.c1ccc(CN2CCN(CCCCNc3c4ccccc4nc4ccccc34)CC2)cc1 [TCMDC-138009]	1 (1: YES)	790 nM	9.92 µM
COc1ccc2nc3cc(Cl)ccc3c(NCCCCNc3c4ccc(Cl)cc4nc4ccc(OC)cc34)c2c1 [TCMDC-138218]	1 (1: YES)	200 nM	14.47 µM
Cc1nc(-c2cccc(Nc3ccnc4cc(-c5nccs5)ccc34)c2)no1.Cl [TCMDC-138334]	1 (1: YES)	300 nM	7.62 µM
Cc1cc(NCCc2ccccc2)nc(NC(=N)Nc2ccccc2Cl)n1 [TCMDC-138370]	0 (0: NO)	4870 nM	13.60 µM
CS(=O)(=O)CCNCc1nc(-c2ccc3c(=O)[nH]cnc3c2)cs1 [TCMDC-138539]	0 (0: NO)	2680 nM	4.20 µM
Cl.O=C(NCCCCN1CCC(c2ccc3c(c2OCCO)CCCC3)CC1)c1ccc2oc(-c3ccc(C(F)(F)F)cc3)cc2c1 [TCMDC-138771]	1 (1: YES)	630 nM	6.59 µM
C=C(C)Cn1cc(C2CCN(CCN3CCC(CNC(=O)c4ccc(-c5ccc(C#N)cc5)cc4)CC3)CC2)c2ccccc21 [TCMDC-138854]	0 (0: NO)	2930 nM	3.70 µM
O=C(NCCCCN1CCC(c2c[nH]c3ccc(-c4ccccc4)cc23)CC1)c1ccc(-c2ccccc2)cc1.O=C(O)C(=O)O [TCMDC-139064]	0 (0: NO)	1830 nM	9.40 µM
CCCCCCCN1CC[C@@H](CCCc2ccnc3ccc(OC)cc23)[C@@H](CCN)C1.O=C(O)C(=O)O [TCMDC-139278]	1 (1: YES)	270 nM	2.98 µM
COc1ccc(COc2cc(NCCCN)nc3ccccc23)cc1 [TCMDC-139286]	1 (1: YES)	560 nM	13.98 µM
O=C(/C=C/c1ccc(Cl)c(Cl)c1)NCCCCCN1CCCC(CNS(=O)(=O)c2cccc(C(F)(F)F)c2)C1 (stereo not drawn) [TCMDC-139597]	0 (0: NO)	8630 nM	3.80 µM
CC(C)CCNC(=O)c1cnc2c(O)cccc2c1Nc1cccc(NC(=O)c2ccc(F)cc2)c1.O=C(O)C(F)(F)F [TCMDC-139606]	0 (0: NO)	1270 nM	5.27 µM
O=C(Nc1ccc(Oc2ccccc2)cc1)N(CCN1CCCC1)Cc1ccc(-c2ccc(CN3CCNCC3)cc2)cc1.O=C(O)C(F)(F)F [TCMDC-139652]	0 (0: NO)	1020 nM	7.08 µM
COc1ccc(CCNC(C)Cc2ccc(C(=O)Nc3ccc(CC(C)NCCc4cccc(Cl)c4)cc3)cc2)cc1 (stereo not drawn) [TCMDC-139750]	0 (0: NO)	620 nM	2.40 µM
